Source: US6812213B2, “Steroidal sapogenins and their derivatives for treating alzheimer's disease” (Phytopharm, plc, priority 1998, dated 2004)
Where “and” joins values, the source holds several entries; their conditions need not be identical. Identical values can stand only once.

What was measured:
oestrogen receptor = assay: Oestrogenic effects of steroid sapogenin compounds
From the text: In identifying compounds that would have use in the treatment of SDAT and other diseases characterised by reductions in receptor numbers or synaptic transmission, the inventors have given consideration to the need to identify compounds that would have the desired effect but would be devoid of any oestrogenic effects, as these would be unacceptable, particularly in male patients. A number of the compounds claimed to have activity in patent application DE 4303214A1 have marked oestrogenic activity and are therefore unacceptable.
In addition these compounds were tested at other steroid receptors as it was considered that compounds that would be of clinical sue should have no effects at the other steroid receptors.

[1] = test system: muscarinic receptors on cultured cardiac muscle cells; assay: Muscarinic receptor expression on cultured neonatal cardiac muscle cells (tritiated QNB); format: cell-based, Sprague Dawley rats
Protocol: 3. Cultured cardiac muscle cells obtained from neonatal Sprague Dawley rats. The cardiac muscle cells express muscarinic receptors, typically m2. The level of these receptors falls on prolonged culture and the effects of compounds of interest in preventing the fall in receptor numbers was investigated.
Cardiac muscle cells were isolated from the ventricular muscle of neonatal Sprague Dawley rats using standard techniques. Cells were cultured in vitro and muscarinic receptor numbers expressed on cell surfaces membrane fragments after homogenisation of cells harvested at various time points were estimated using specific binding of tritiated QNB. […] The experiments were therefore designed to investigate the effects of the various compounds in inhibiting this decline in receptor numbers.

[2] = test system: m2 receptors on CHO cells; assay: Expression of m2 receptors on transfected CHO cells (tritiated QNB binding); format: cell-based; conditions: DMSO control
Protocol: 1. Chinese hamster ovary (CHO) cells transfected with the a DNA fragment coding for a muscarinic receptor. The cell line used for the majority of the experiments was a cell line expressing the m2 receptor.
The effects of various compounds on the expression of m2 receptors on CHO cells transfected with DNA for the m2 receptor were investigated. Receptor numbers were assayed using tritiated QNB binding and subtracting non-specific binding. Compounds were dissolved in DMSO and DMSO was used as a control. Compounds were tested at a range of final concentrations. Compounds were also tested in the presence and absence of tamoxifen to try to distinguish an oestrogen receptor mediated mechanism.

M1 cholinergic receptors = conditions: Chinese Patent No. CN1096031A; cited from earlier work
[3] = test system: major known classes of membrane bound receptor; assay: Direct binding to major known classes of membrane bound receptor
From the text: Thus it can be postulated that the observed effects are probably not due to for instance an effect at the nicotinic receptor and a consequential increase in the number of muscarinic receptors. This explanation appears to be even less plausible (although it cannot be excluded) if one considers that certain of the compounds have also been shown by the inventors to increase the number of beta adrenergic receptors expressed on peripheral blood lymphocytes. Thus the mechanism would appear to be one which has a more general effect on the regulation of membrane bound receptors.

m1 receptor mRNA = m1 receptor mRNA levels in brain by in situ hybridisation; format: in vivo, SD rats; conditions: for m1 receptor mRNA, comparison SaG vs Aged: 3 mg sarsasapogenin per rat per day in feed, four months, positive means increased
Protocol: 20 months old pure-line male SD rats were divided randomly into 2 groups. One group received an average of 3 mg of sarsasapogenin per rat per day mixed into the daily feed. The control group received normal food and water. Four months later, their brains were used in hybridisation technique experiments, with 4 to 6 months old rats used as a young control group. Other feeding arrangements for each group were completely identical.
A cDNA chain which respectively corresponds to the maNA of both m1 and m2 was synthesised, m1 corresponds to the 3-18 amino acid sequence of receptor protein, i.e. TGGTGCCAAGACAGTGATGTTGGGACTGACAGCAGGGGGCACTGAGGT, and M2 to the 1-16 amino acid sequence, i.e. ATGAATAACTCAACAAACTCCTCGAACAATGGCTTGGCTATTACCAGT. The cDNA was labelled using a 3′-terminal-label reagent kit with a-^35S-dATP (8.9 TBq/mmol) as the label material. After the reaction had finished, it was purified with a nucleotide column. The specific activity of the batch was estimated (16.67-33.34)×108 MBq/μg. a-^35S-dATP, 3′-terminal-label reagent kit and nucleotide column were obtained from Du Pont Co., USA.
One rat was obtained from each group each time and parallel experiments were performed. The rats were decapitated and their brains removed intact. 15 μm thick coronal slices were prepared in a constantly freezing cryo-microtome (AS-600 cryo-microtome, Anglia Scientific Co, UK). Slices were taken from different areas (identical places for each rat) and were mounted on slides smeared with polylysine, dried in a cool current of air, fixed in a solution of 4% paraformaldehyde (containing 1×phosphate buffer saline (PBS), pH 7.0) for 5 minutes before being washed twice in PBS. They were then placed in 0.25% acetic anhydride solution (containing 0.1 M triethanolamine hydrochloride, Ph 8.0, and 0.9% sodium chloride) for 10 minutes, dehydrated in 70%, 80%, 95%, and 100% ethyl alcohol for 1 minute, degreased in chloroform for 5 minutes, and finally treated in 100% and 95% ethyl alcohol for 1 minute successively.
Slices used as negative controls were taken and dehydrated in ethyl alcohol etc. as detailed above, but treated in advance in 100 mg m1 RNase and 2×SSC solution (salt/sodium citrate solution containing 300 mmol/L sodium chloride and […] sodium citrate) for 2 hours at 37° C. […]
Autoradiographs were prepared in a dark room, the specimen and the hyperfilm beta max being pressed together using the contact method and placed in a cassette with a desiccant, exposed at 4° C. for 2 to 3 weeks. […] Finally, the autoradiographs were analysed using a computerised image analyser (VIDAS imaging analyser, Kontron, Germany).

β-adrenergic receptors = conditions: Chinese Patent No. CN1096031A; cited from earlier work
[4] = test system: known steroidal receptors; assay: Binding to known steroidal receptors
[5] = Molar concentration of compound 10^−5

Compound	Oestrogenic Activity (oestrogen receptor)	Concentration of compound causing a significant increase in number of receptors expressed on neonatal cardiac muscle after 10 days in vitro culture [1]	Effect on receptor expression—given as % increase compared to control (negative values in brackets) [2, 5] [%]	other results
Smilagenin	Negative	10^−6 M	57	Effect on receptor expression—given as % increase compared to control (negative values in brackets) ([2]; Molar concentration of compound 10^−6): 18%
Sarsasapogenin	Negative	10^−5 M	34	regulation of M1 cholinergic receptors (M1 cholinergic receptors): up-regulate; direct binding to membrane bound receptors [3]: not to bind directly; m1 receptor mRNA, comparison SaG vs Aged (m1 receptor mRNA; Cortex): 5.77 ± 3.82 (20); m1 receptor mRNA, comparison SaG vs Aged (m1 receptor mRNA; Hippocampus): 0.96 ± 4.26 (10); m1 receptor mRNA, comparison SaG vs Aged (m1 receptor mRNA; Striatum, p < 0.01, listed as SaG): significant increase and 15.71 ± 3.27 (10); levels of M receptor mRNA (m1 receptor mRNA; rats treated with SaG): raised; regulation of β-adrenergic receptors (β-adrenergic receptors): down-regulate; binding to known steroidal receptors [4]: do not bind
C[C@@H]1CC[C@@]2(OC1)O[C@H]1C[C@H]3[C@@H]4CC=C5C[C@@H](O)CC[C@]5(C)[C@H]4CC[C@]3(C)[C@H]1[C@@H]2C [Diosgenin]	Positive	–	–	–
C[C@@H]1CC[C@@]2(OC1)O[C@H]1C[C@H]3[C@@H]4CC=C5C[C@@H](O)C[C@@H](O)[C@]5(C)[C@H]4CC[C@]3(C)[C@H]1[C@@H]2C [Ruscogenin]	Positive	–	–	–
Tigogenin	Negative	–	–	–
Astragaloside	Negative	10^−5 M	–	–
C[C@@H]1CC[C@@]2(OC1)O[C@H]1C[C@H]3[C@@H]4C[C@@H](O)[C@@]5(O)C[C@@H](O)CC[C@]5(C)[C@H]4CC[C@]3(C)[C@H]1[C@@H]2C [Anzurogenin D]	Negative	10^−6 M	22	–
